Data taken from patent publication US20120083522A1, “MODULATION OF INFLAMMATORY RESPONSES BY FACTOR XI” (Isis Pharmaceuitcals, inc., priority 2009, published 2012).
In the oligonucleotide strings, read from the 5' end, every base follows the letter of its sugar. An asterisk marks phosphorothioate; unmarked linkages are phosphodiester. Other units and linkages are bracketed, terminal groups are in braces. A string of capitals states the bases alone. e = 2'-O-(2-methoxyethyl) (MOE); [5mC] = 5-methylcytosine; d = 2'-deoxy (DNA)

Experiments:
Format in all cases: in vivo
[1] = Tolerability in CD1 mice: liver function (Example 17); parameters: Albumin: unit not given here; conditions: plasma, 50 mg/kg s.c. twice a week, 50 mg/kg
[2] = Tolerability in CD1 mice: kidney function (Example 17); conditions: plasma, 50 mg/kg s.c. twice a week
Excerpt: Results are presented in Tables 62 and 63, expressed in mg/dL.

[3] = Tolerability in CD1 mice: hematology assays (Example 17); conditions: for lymphocyte count / monocyte count / neutrophil count: percent of total blood cell count; for HCT / MCH / MCHC / MCV / WBC count: blood, 50 mg/kg s.c. twice a week
Method: A control group of five mice was injected subcutaneously with PBS for 2 weeks. All experimental groups (i.e. ASO treated mice at 2, 4, 6 weeks) were compared to the control group (i.e. PBS, 2 weeks).
Blood obtained from all mice groups were sent to Antech Diagnostics for hematocrit (HCT), mean corpuscular volume (MCV), mean corpuscular hemoglobin (MCH), and mean corpuscular hemoglobin concentration (MCHC) measurements and analyses, as well as measurements of the various blood cells, such as WBC (neutrophils, lymphocytes, and monocytes), RBC, and platelets, and total hemoglobin content. Percentages given in the tables indicate the percent of total blood cell count.

[4] = Tolerability in Sprague-Dawley rats: liver function (Example 19); conditions: plasma, 50 mg/kg s.c. twice per week for 6 weeks, 50 mg/kg
Excerpt: (§1) Urine samples were taken before the start of treatment.

[5] = Tolerability in Sprague-Dawley rats: kidney function (Example 19); conditions: Sprague-Dawley rats, plasma, 50 mg/kg s.c. twice per week for 6 weeks; 50 mg/kg
Excerpt: as §1

[6] = Tolerability in Sprague-Dawley rats: hematology assays (Example 19); conditions: 50 mg/kg s.c. twice per week for 6 weeks
Excerpt: as §1

[7] = as above; conditions: 50 mg/kg s.c. twice per week for 6 weeks, 50 mg/kg

GCCCTTCATGTCTAGGTCCA [ISIS 416825] (eG*e[5mC]*e[5mC]*e[5mC]*eT*dT*d[5mC]*dA*dT*dG*dT*d[5mC]*dT*dA*dG*eG*eT*e[5mC]*e[5mC]*eA) [5-10-5 MOE gapmer]
ALT ([1]; 2 weeks): 64 IU/L
AST ([1]; 2 weeks): 82 IU/L
Albumin ([1]; 2 weeks): 3.6
Bilirubin ([1]; 2 weeks): 0.41 mg/dL
ALT ([1]; 4 weeks): 314 IU/L
AST ([1]; 4 weeks): 239 IU/L
Albumin ([1]; 4 weeks): 3.4
Bilirubin ([1]; 4 weeks): 0.69 mg/dL
ALT ([1]; 6 weeks): 507 IU/L
AST ([1]; 6 weeks): 301 IU/L
Albumin ([1]; 6 weeks): 3.5
Bilirubin ([1]; 6 weeks): 0.29 mg/dL
BUN ([2]; 2 weeks, 50 mg/kg): 29 mg/dL
creatinine ([2]; 2 weeks, 50 mg/kg): 0.14 mg/dL
BUN ([2]; 4 weeks, 50 mg/kg): 35 mg/dL
creatinine ([2]; 4 weeks, 50 mg/kg): 0.21 mg/dL
creatinine ([2]; 6 weeks): 0.17 mg/dL
BUN ([2]; 6 weeks, 50 mg/kg): 31 mg/dL
RBC count ([3]; 2 weeks): 9 cells/pL
hemoglobin content ([3]; 2 weeks): 14.5 g/dL
platelet count ([3]; 2 weeks): 1689 cells/nL
lymphocyte count ([3]; 2 weeks): 82%
monocyte count ([3]; 2 weeks): 2%
neutrophil count ([3]; 2 weeks): 15%
RBC count ([3]; 4 weeks): 9 cells/pL
hemoglobin content ([3]; 4 weeks): 14.1 g/dL
platelet count ([3]; 4 weeks): 1229 cells/nL
lymphocyte count ([3]; 4 weeks): 53%
monocyte count ([3]; 4 weeks): 5%
neutrophil count ([3]; 4 weeks): 43%
RBC count ([3]; 6 weeks): 8 cells/pL
hemoglobin content ([3]; 6 weeks): 12.1 g/dL
platelet count ([3]; 6 weeks): 942 cells/nL
lymphocyte count ([3]; 6 weeks): 71%
monocyte count ([3]; 6 weeks): 4%
neutrophil count ([3]; 6 weeks): 23%
HCT ([3]; 2 weeks, 50 mg/kg): 49%
MCH ([3]; 2 weeks, 50 mg/kg): 17 pg
MCHC ([3]; 2 weeks, 50 mg/kg): 29%
MCV ([3]; 2 weeks, 50 mg/kg): 58 fL
WBC count ([3]; 2 weeks, 50 mg/kg): 8 cells/nL
MCH ([3]; 4 weeks): 16 pg
WBC count ([3]; 4 weeks): 8 cells/nL
HCT ([3]; 4 weeks, 50 mg/kg): 46%
MCHC ([3]; 4 weeks, 50 mg/kg): 31%
MCV ([3]; 4 weeks, 50 mg/kg): 53 fL
HCT ([3]; 6 weeks, 50 mg/kg): 40%
MCH ([3]; 6 weeks, 50 mg/kg): 15 pg
MCHC ([3]; 6 weeks, 50 mg/kg): 31%
MCV ([3]; 6 weeks, 50 mg/kg): 51 fL
WBC count ([3]; 6 weeks, 50 mg/kg): 6 cells/nL
ALT [4]: 89 IU/L
AST [4]: 17 IU/L
Albumin [4]: 2 mg/dL
Bilirubin [4]: 4 mg/dL
BUN [5]: 7 mg/dL
creatinine [5]: 17 mg/dL
Lymphocytes ([6]; 50 mg/kg): 3%
Monocytes ([6]; 50 mg/kg): 15%
Neutrophils ([6]; 50 mg/kg): 25%
RBC ([6]; 50 mg/kg): 2 pL⁻¹
MCH ([6]; title says % control): 2 pg
Hemoglobin ([6]; title says % control, 50 mg/kg): 2 g/dL
MCHC ([6]; title says % control, 50 mg/kg): 4%
Platelets [7]: 6 10^3/μL
WBC [7]: 22 nL⁻¹
HCT ([7]; title says % control): 2%
MCV ([7]; title says % control): 4 fL
